Consider two molecules from patent publication US20230000808A1, “COMPOSITIONS AND METHODS EXCLUDING OR WITH REDUCED GLUTAMINE FOR THE TREATMENT OF HEMOGLOBINOPATHIES AND THALASSEMIAS” (AXCELLA HEALTH INC., priority 2019, published 2023).

What all share (format): cell-based, human
One assay relates to HLMVECs. Kind of assay: Mitochondrial stress test, oxygen consumption rate in HLMVEC/TNF-α model (Seahorse). To be noted: for Maximal respiration (OCR) relative to TNF Control, Mean % Change: HLMVEC/TNF-α model, 24 h, Seahorse. The method, then:
Cells were incubated at 37° C., 5% CO2 in a humidified incubator. Cells were passaged at least 1-2 times in the complete growth medium every 2-3 days until ready to plate for cell culture studies. Once ready for experiment, HLMVECs were seeded at a density of 6K cells per well of the 96 well optical microplates (Thermofisher) in the complete growth medium described above and the plated cells were incubated for 24 hours at 37° C. in a humidified incubator with 5% CO2. […] The values are published in the Human Metabolome Database (Wishart D S, et al., Nucleic Acids Res. 2007 January; 35:[…]-6) which is hereby incorporated by reference in its entirety. The medium was also supplemented with growth factors & antibiotics from EGM2-MV kit (Lonza) except the kit-provided FBS which was substituted with dialyzed FBS (Hyclone). […] Using the Agilent Seahorse XF Cell Mito Stress Test Kit (103015-100), parameters of mitochondrial function were studied by directly measuring the oxygen consumption rate (OCR) of HLMVECs on the Seahorse Flux Analyzer (Agilent Technologies) following the manufacturer's recommended protocol and prescribed controls in the kit. The co-treatment cell culture medium after 24 h incubation was removed & aliquoted for adhesion & inflammation biomarker analyses as described above and the HLMVECs in the 96-well plate were further incubated at 37° C. in a non-CO2 incubator for 45 minutes to 1 hour in the pre-warmed Seahorse assay medium supplemented with 10 mM glucose and 1 mM pyruvate but without 2 mM L-glutamine to allow unambiguous evaluation of amino acid combinations in the study. Oxygen consumption was measured at the end of incubation by the Seahorse Flux Analyzer. Four replicates for each treatment were processed for Seahorse studies. Mean percent change in maximal respiration is reported. Statistical analysis was done using one-way ANOVA two sample t-test.

For another assay, the system named is MCP-1. Kind of assay: MCP-1 in HLMVEC/TNF-α model (ELISA). To be noted: for MCP-1 expression relative to TNF Control, Mean % Change: 20×HMDB amino acids, 24 h co-treatment. The procedure:
Cells were incubated at 37° C., 5% CO2 in a humidified incubator. Cells were passaged at least 1-2 times in the complete growth medium every 2-3 days until ready to plate for cell culture studies. Once ready for experiment, HLMVECs were seeded at a density of 6K cells per well of the 96 well optical microplates (Thermofisher) in the complete growth medium described above and the plated cells were incubated for 24 hours at 37° C. in a humidified incubator with 5% CO2. […] The values are published in the Human Metabolome Database (Wishart D S, et al., Nucleic Acids Res. 2007 January; 35:[…]-6) which is hereby incorporated by reference in its entirety. The medium was also supplemented with growth factors & antibiotics from EGM2-MV kit (Lonza) except the kit-provided FBS which was substituted with dialyzed FBS (Hyclone). […] Human MCP-1 was measured by ELISA (Human […] DuoSet ELISA, R&D Systems) at 1/70 dilution in 1× Reagent Diluent (Reagent Ancillary Kit 2, R&D Systems). Samples were run in triplicates. […] Samples were run in triplicates. Mean percent change in cytokine levels relative to vehicle are reported herein. Statistical analysis was done using two sample t-test.

Assay [1] has as its system whole blood from healthy controls. Kind of assay: ROS (DCF fluorescence) in whole blood of healthy control donors, H2O2-induced. To be noted: healthy control donors treated with H2O2; dose-responsive. The procedure:
(§1) Whole blood samples were appropriately diluted in Ca^2+- and Mg^2+-free Dulbecco's phosphate buffered saline (DPBS, Life Technologies) and the concentration of erythrocytes (RBC/mL) was measured on a Cellometer K2 Fluorescent Viability Cell Counter according to the manufacturer's RBC/AOPI protocol (Nexcelom Biosciences).
(§2) Cells were then diluted to 1×10^6 RBC/mL into either prewarmed 37° C. […] 2′-7′-dichlorofluorescin diacetate (DCF, Millipore Sigma), 20 mM in dimethyl sulfoxide (DMSO, Fisher) were added to a working concentration of 100 μM. Cells were incubated with dye for 15 minutes at 37° C., 5% CO2 in a tissue culture incubator, washed once, and resuspended in the 0.9 volumes of the same prewarmed 37° C. buffer with 5 minute spins at 500×g, accel/decal=5 in a swing arm centrifuge (Beckman Coulter). […] Where possible due to solubility constrains, pH-7.4-adjusted stock solutions of amino acids were used. Wells were mixed by pipetting and plates incubated at 37° C., 5% CO2 in a tissue culture incubator for 30 minutes. Optionally, 40 mM H2O2 (Millipore Sigma) freshly prepared in the same buffer was added to bring the concentration to 2 mM, wells mixed by pipetting, and plates were incubated an additional 30, 60, 120, or 240 minutes before fluorescence measurement of ROS signal on a Synergy H4 (BioTek) microplate reader with excitation=488 nm and emission=530 nm, and gain either set to autogain, 75, or 100.

Assay [2] deals with sickle cell disease patient blood. Kind of assay: ROS (DCF fluorescence) in sickle cell disease patient whole blood. To be noted: both treated with H2O2 and untreated, in DPBS. The procedure: as §1, §2

For the molecule `NC(=O)CC[C@H](N)C(=O)O` [Glutamine, L-glutamine], the “Maximal respiration (OCR) relative to TNF Control, Mean % Change” value with HLMVECs (TNF Conc 0.5 ng/mL) is on record as −47.7527%; in the assay on HLMVECs (TNF Conc 25 ng/mL) it was −27.9927%. For the same molecule, the “oxygen consumption” value with HLMVECs (either TNF-α concentration) is “did not support oxygen consumption”; with HLMVECs (higher TNF-α concentration of 25 ng/mL), “appeared to get worse”. For the same molecule, the “MCP-1 expression relative to TNF Control, Mean % Change” value in the assay with MCP-1 (TNF Conc 0.5 ng/mL) was −11.673%; in the assay with MCP-1 (TNF Conc 25 ng/mL), −12.1569%. Further, in the assay on MCP-1 (both TNF-α treatment groups), the “MCP-1 level reduction relative to the controls” value is reported as approximately 12%.

In the case of `CC(=O)N[C@@H](CS)C(=O)O` [N-Acetyl Cysteine, N-acetylcysteine], the “ROS measured in whole blood” value in assay [1] and in assay [2] was “reduced” each time.
